Assay results taken from US9289445B2, “Compositions and methods for treating or preventing a retrovirus infection” (University of Rochester, priority 2011, dated 2016).

Assays:
[1] = test system: HIV-1 vector (D3-GFP) in primary human macrophages; assay: HIV-GFP vector transduction of primary macrophages (GFP FACS); format: cell-based; conditions: ddUTP pretreated macrophages, flow cytometry
Method: Human primary macrophages were preincubated with different concentrations of rACT (0, 10, 100 and 100 μM) for 24 hours and then transduced with HIV-GFP vector (equal p24 amounts). The percentages of GFP positive macrophages and PI positive cells in a representative donor, which were determined by FACS at 7 days post transduction, are shown. […] These experiments were performed in triplicate from three different blood donors.
Primary human macrophages were pretreated with ddUTP and transduced with a single round VSV-G pseudotyped HIV-1 vector (D3HIV). […] FIG. 10B is a graph showing the results from flow cytometry analysis of the transduced cells.
Next, rACT was evaluated for its ability to inhibit HIV-1 replication in non-dividing cells. The transduction efficiency of an HIV-1 vector in primary human macrophages in the presence and absence of rACT was measured. Human macrophages, which were prepared from multiple donors, were pre-incubated with various concentrations of rACT, and then transduced with an HIV vector (D3-GFP), which expressed all HIV-1 proteins except Env and Nef (replaced with eGFP). Virus infectivity was determined by FACS analysis for GFP expression at 7 days post infection.
Dideoxy uracil triphosphate (ddUTP) was assessed for its ability to inhibit viral reverse transcription in non-dividing cells. […]

[2] = test system: HIV-1 2-LTR DNA circles (proviral DNA synthesis) in macrophages; assay: Quantitative 2LTR circle PCR in transduced macrophages; format: cell-based; conditions: ddUTP treated cells
Method: Human macrophages, which were prepared from multiple donors, were pre-incubated with various concentrations of rACT, and then transduced with an HIV vector (D3-GFP), which expressed all HIV-1 proteins except Env and Nef (replaced with eGFP).
(§3) Dideoxy uracil triphosphate (ddUTP) was assessed for its ability to inhibit viral reverse transcription in non-dividing cells. Primary human macrophages and CD4^+ T-cells were isolated from human buffy coats and pretreated with ddUTP. The treated cells were then transduced with a single round of VSV-G pseudotyped HIV-1 vector D3-HIV in the presence of various concentrations of drug.
Equal p24 level of the produced vector was used for infecting human macrophages pre-incubated with different concentrations of rACT (RI Chemicals, CA) for 12 hours. For ddUTP, the produced vector was pre-incubated for at least two hours. One half of the harvested cells were used for determining the percentages of the GFP expressing and/or propidium iodide (PI) stained cells by FACS at 7 days post infection. All cells used to asses transduction efficiency were gated or stained with propidium iodide to assure live cells were measured. The remaining cells were used for the extraction of genomic DNA. Quantitative 2LTR circle PCR assay using real-time PCR was normalized by total genomic DNA (Biorad, Hercules, Calif.).

[3] = test system: primary human macrophages
Method: The treated cells were then transduced with a single round of VSV-G pseudotyped HIV-1 vector D3-HIV in the presence of various concentrations of drug.
The purified human monocytes from three different donors were differentiated to macrophages as described previously, and D3HIV-GFP vector system expressing GFP, was also prepared as previously described in Jamburuthugoda et al. J. Biol. Chem. 281:13388-13395 (2006); Diamond et al. J. Biol. Chem. 279:51545-51553 (2004); Jamburuthugoda et al. J. Biol. Chem. 283:9206-9216 (2008); and Weiss et al. Biochemistry 43:4490-4500 (2004). […] One half of the harvested cells were used for determining the percentages of the GFP expressing and/or propidium iodide (PI) stained cells by FACS at 7 days post infection. All cells used to asses transduction efficiency were gated or stained with propidium iodide to assure live cells were measured.

[4] = test system: HIV-1 vector (DHIV-GFP) in activated CD4+ T cells; assay: HIV-GFP vector transduction of activated CD4+ T cells (GFP FACS); format: cell-based; conditions: ddUTP, CD4+ T cells
Method: Next, rACT was evaluated for its ability to inhibit HIV-1 replication in non-dividing cells. The transduction efficiency of an HIV-1 vector in primary human macrophages in the presence and absence of rACT was measured. Human macrophages, which were prepared from multiple donors, were pre-incubated with various concentrations of rACT, and then transduced with an HIV vector (D3-GFP), which expressed all HIV-1 proteins except Env and Nef (replaced with eGFP). Virus infectivity was determined by FACS analysis for GFP expression at 7 days post infection. […] Finally, the effect of rACT on HIV-1 infection in activated CD4^+ T cells was examined.
as §3
rACT was tested in T cells as follows, human primary activated CD4^+ T cells (2.5×10^5) cells isolated from two donors were pre-treated with 0, 0.1, and 1 mM rACT for 4 hours, and then the cells were transduced with DHIV-GFP. The transduced cells were fixed at 48 hours post transduction, and analyzed by FACS for determining the percent of GFP cells. […]

HIV-1 RT [5] = molecular target: T1, HIV-1 RT (Human immunodeficiency virus type 1 group M subtype B, UniProt P04585); assay: Single nucleotide extension at macrophage nucleotide concentrations; format: biochemical; conditions: rNTP alone at macrophage concentration
T1 construct: Pre-Steady State Kinetic Parameters of HIV-1 RT for dTTP/dUTP
Source text: FIGS. 4A-4E compare the dNTP and rNTP incorporation rates of HIV-1 RT at nucleotide concentrations found in human macrophages. Incorporation kinetics of HIV-1 RT (green circle) for individual dNTPs and rNTPs at their concentrations found in macrophages (see Table 1) were compared by single nucleotide extension reactions. FIG. 4A is a gel showing a representative time-course reaction set for dATP alone, ATP alone, or both dATP and ATP at their macrophage concentrations. P: unextended 17-mer primer, E: extended 18-mer product. and C: no RT control. FIG. 4B includes graphs. The percentages of the primer extension at early time points were plotted to compare the incorporation rate for each dNTP or rNTP alone as well as for dNTPs and rNTPs at their macrophage concentrations. FIG. 4C is a gel showing a time-course reaction. Identical reactions were conducted with SIVagm Sab-1 RT. FIG. 4D is a table showing the steady state Km values of HIV-1 RT to rNTPs determined by single nucleotide incorporation assays. FIG. 4E is a graph comparing rNTP concentrations (black bars) of macrophages and PBMCs and the Km values (red zone) of HIV-1 RT to rNTPs. Grey bars: average concentrations of dNTPs of the two target cell types obtained from Table 1.
The incorporation kinetics for individual dNTPs and rNTPs by retrovirus RT at the concentrations found in non-dividing cells were assessed. For this, a primer extension reaction similar to that used in FIG. 3C was employed, except nucleotide specific primers and a single dNTP, rNTP, or both were used to estimate individual nucleotide incorporation rates. […] Upon combining dNTPs and rNTPs in a reaction (FIGS. 4A and B, purple dotted lines), the total single nucleotide extension rate appeared to be elevated as compared to the rates of either dNTP (red line) or rNTP alone. When primer extension products were plotted by time, primer extension was accelerated in the presence of both dNTPs and rNTPs at their macrophage concentrations as compared to the reactions containing either dNTPs or rNTPs alone. The results of this single nucleotide assay are consistent with the data from the multiple nucleotide incorporation assay (FIG. 3C).

HIV-1 RT [6] = molecular target: T1, HIV-1 RT; assay: Primer extension followed by E. coli UNG2 digestion (dUTP incorporation); format: biochemical
Method: FIG. 8A includes a schematic of a coupled RT extension reaction UNG2 digestion assay and a gel. RT was incubated with i) the dNTP concentrations found in macrophages or PBMCs, and ii) either the dUTP concentration for those cells types or ddH20. These reactions were quenched with EDTA and subjected to E. Coli UNG2 digestion, followed by 95° C. incubation and UREA PAGE gel electrophoresis. The digested bands (*) were quantified and plotted relative to total unextended and extended products. […] FIG. 8C includes a gel showing the results of single nucleotide extension reactions of HIV-1 RT with dTTP and dUTP concentrations found in macrophages. […] The rates of product formation for dTTP (black line), dUTP (blue line), and both dTTP and dUTP (green line) were plotted.
HIV-1 RT mediated DNA synthesis in nucleotide pools found in dividing and non-dividing cells was further assessed using a primer extension assay followed by E. coli UNG2 digestion to quantify the amount of dUTP incorporated under these condition (FIG. 8). The presence of a […] band at the first dTTP/dUTP incorporation site was used to monitor the fraction of DNAs that contained a dUTP following UNG digestion (see * in FIG. 8). […] The single nucleotide extension assays were performed to compare the rate of incorporation dTTP, dUTP, or both nucleotides at concentrations found in non-dividing cells. […]

HIV-1 RT [7] = molecular target: T1, HIV-1 RT; assay: Steady state kinetics of reverse transcriptase for dTTP/dUTP; format: biochemical
Method: (§1) Retrovirus RT was assessed for its ability to incorporated dTTP and dUTP at physiologically relevant concentrations. First, Km of HIV-1 RT, SIV RT, MuLV RT, and FIV RT for both dTTP and dUTP was measured.
The single nucleotide incorporation reactions were conducted using 20 nM template/primers (40mer RNA template annealed to Primer A, Ext-T primer, Ext-G primer, or Ext-C primer) and 20 nM RT in 1× reaction buffer for 5 minutes at varying concentrations of NTP. Reactions were performed in triplicate.
(§2) All primer extension reactions were analyzed with urea denaturing 10-16% PAGE gels and scanned with a phosphoimager (Biorad, Hercules, Calif.) and quantified with the Biorad Quantity One software. Nonlinear regression analysis was done with Kaleida Graph (Synergy Software, Reading, Pa.). Rates were determined with a single exponential, and Michaelis Menten fits were completed as previously described in Kennedy et al. Biochemistry 48:11161-11168 (2009).

SIVagm Sab1 RT = assay: as above; format: biochemical, simian immunodeficiency virus (SIVagm Sab); conditions: SIV RT
Method: as §1, §2

HIV-1 RT [8] = molecular target: T1, HIV-1 RT; assay: Pre-steady state quench flow titrations for dTTP and dUTP; format: biochemical
Method: To confirm that selectivity is not pronounced during the binding or isomerization steps of polymerization, pre-steady state quench flow titrations for dTTP and dUTP were performed with HIV-1 RT.

MuLV RT = MuLV RT (Moloney murine leukemia virus, UniProt P03355); assay: Steady state kinetics of reverse transcriptase for dTTP/dUTP; format: biochemical
Method: as §1, §2

FIV RT = FIV RT (Feline immunodeficiency virus, UniProt P16088); assay: as above; format: biochemical
Method: as §1, §2

O=c1ccn([C@H]2CC[C@@H](COP(=O)(O)OP(=O)(O)OP(=O)(O)O)O2)c(=O)[nH]1 [ddUTP, Dideoxy uracil triphosphate]
inhibition of transduction (eGFP positive live macrophages) [1]: dose dependent inhibition of transduction
2LTR circles (QT-PCR) [2]: 2LTR circles accumulated in the cells treated with higher concentrations of drug
cell death [3]: little cell death
reduction in transduction efficiency [4]: Little or no reduction in transduction efficiency

Nc1ncnc2c1ncn2[C@@H]1O[C@H](COP(=O)(O)OP(=O)(O)OP(=O)(O)O)[C@@H](O)[C@H]1O [ATP]
rNTP incorporation by HIV-1 RT (HIV-1 RT [5]): efficiently

O=c1ccn([C@H]2C[C@H](O)[C@@H](COP(=O)(O)OP(=O)(O)OP(=O)(O)O)O2)c(=O)[nH]1 [dUTP]
dUTP incorporation, fraction of all synthesized DNA (HIV-1 RT [6]; dUTP and dNTP levels found in non-dividing cells): ⅓
dUTP incorporation, non-dividing versus dividing cell environment (HIV-1 RT [6]; non-dividing compared to dividing cell environment): approximately 5 fold
Km (HIV-1 RT [7]): 27.7 ± 7 nM
Km (SIVagm Sab1 RT): 17 ± 3.5 nM
Kd (HIV-1 RT [8]): 5.1 ± 1.93 µM
Kpol (HIV-1 RT [8]): 194.39 ± 30.0 S^−1
Selectivity (HIV-1 RT [8]): 1.52
kpol/kd (HIV-1 RT [8]): 38 μM^−1 S^−1
Km (MuLV RT): 253 ± 52.1 nM
Km (FIV RT): 180 ± 4.5 nM

Nc1nc2c(ncn2[C@@H]2O[C@H](COP(=O)(O)OP(=O)(O)OP(=O)(O)O)[C@@H](O)[C@H]2O)c(=O)[nH]1 [GTP]
rNTP incorporation by HIV-1 RT (HIV-1 RT [5]): less efficiently

Nc1ccn([C@@H]2O[C@H](COP(=O)(O)OP(=O)(O)OP(=O)(O)O)[C@@H](O)[C@H]2O)c(=O)n1 [CTP]
rNTP incorporation by HIV-1 RT (HIV-1 RT [5]): efficiently

Cc1cn([C@H]2C[C@H](O)[C@@H](COP(=O)(O)OP(=O)(O)OP(=O)(O)O)O2)c(=O)[nH]c1=O [dTTP]
Km (HIV-1 RT [7]): 21.8 ± 2.8 nM
Selectivity (dTTP/dUTP) (HIV-1 RT [7]): 1.298
Km (SIVagm Sab1 RT): 18.4 ± 4.3 nM
Selectivity (dTTP/dUTP) (SIVagm Sab1 RT): 0.839
Kd (HIV-1 RT [8]): 3.4 ± 0.62 µM
Kpol (HIV-1 RT [8]): 85.72 ± 7.3 S^−1
Selectivity (HIV-1 RT [8]): 1.0
kpol/kd (HIV-1 RT [8]): 25 μM^−1 S^−1
Km (MuLV RT): 50.4 ± 22 nM
Selectivity (dTTP/dUTP) (MuLV RT): 4.969
Km (FIV RT): 58.6 ± 6.6 nM
Selectivity (dTTP/dUTP) (FIV RT): 3.754

O=c1ccn([C@@H]2O[C@H](COP(=O)(O)OP(=O)(O)OP(=O)(O)O)[C@@H](O)[C@H]2O)c(=O)[nH]1 [UTP]
rNTP incorporation by HIV-1 RT (HIV-1 RT [5]): less efficiently
